According to patent US20070128217A1 (priority 2003, published 2007):

Legend:
[1] = test system: antibodies in sera from SARS patients (sera 1a, 1b, 2, 6, 37, 62, London, SARS-yellow, SARS-green); type: binding, human; set-up: Binding of serum 6 to linear peptides of protein X1 of SARS-CoV Urbani / Binding of serum 37 to linear peptides of protein X1 of SARS-CoV Urbani / Binding of serum 6 to looped/cyclic peptide (PEPSCAN-ELISA) / Binding of serum 37 to looped/cyclic peptide (PEPSCAN-ELISA) / Binding of serum 37 to looped/cyclic peptides of protein X1 of SARS-CoV Urbani / Binding of serum 6 to linear peptides of protein X2 / Binding of serum 37 to linear peptides of protein X2 / Binding of serum 37 to looped/cyclic peptides of protein X2 of SARS-CoV Urbani / Binding of serum 6 to linear peptides of protein M of SARS-CoV Urbani / Binding of serum 37 to linear peptides of protein M of SARS-CoV Urbani / Binding of serum 6 to looped/cyclic peptides of protein M of SARS-CoV Urbani / Binding of serum 37 to looped/cyclic peptides of protein M of SARS-CoV Urbani / Binding of serum 6 to linear peptides of protein X3 of SARS-CoV Urbani / Binding of serum 37 to linear peptides of protein X3 of SARS-CoV Urbani / Binding of serum 37 to looped/cyclic peptides of protein X3 of SARS-CoV Urbani / Binding of serum 6 to linear peptides of protein X4 of SARS-CoV Urbani / Binding of serum 37 to linear peptides of protein X4 of SARS-CoV Urbani / Binding of serum 37 to looped/cyclic peptides of protein X4 of SARS-CoV Urbani / Binding of serum 6 to linear peptides of protein X5 of SARS-CoV Urbani / Binding of serum 37 to linear peptides of protein X5 of SARS-CoV Urbani / Binding of serum 37 to looped/cyclic peptides of protein X5 of SARS-CoV Urbani / Binding of serum 6 to linear peptides of protein N of SARS-CoV Urbani / Binding of serum 37 to linear peptides of protein N of SARS-CoV Urbani / Binding of serum 6 to linear peptide (PEPSCAN-ELISA) / Binding of serum 1a to looped/cyclic peptides of protein N of SARS-CoV Urbani / Binding of serum 1b to looped/cyclic peptides of protein N of SARS-CoV Urbani / Binding of serum 2 to looped/cyclic peptides of protein N of SARS-CoV Urbani / Binding of serum 6 to looped/cyclic peptides of protein N of SARS-CoV Urbani / Binding of serum 37 to looped/cyclic peptides of protein N of SARS-CoV Urbani / Binding of serum 62 to looped/cyclic peptides of protein N of SARS-CoV Urbani / Binding of serum London to looped/cyclic peptides of protein N of SARS-CoV Urbani / Binding of serum SARS-green to looped/cyclic peptides of protein N of SARS-CoV Urbani: unit not given here
[2] = test system: control sera (pooled serum of ten healthy LUMC hospital workers; commercial negative donor pooled serum from the Dutch bloodbank); type: binding, human; set-up: Binding of Control serum LUMC to linear peptides / Binding of Control serum Blood-bank to linear peptides / Binding of Control serum LUMC to looped peptides / Binding of Control Serum Blood-Bank to Looped peptides / Binding of Control serum LUMC to linear peptides of the protein M of SARS-CoV Urbani / Binding of Control serum Blood-bank to linear peptides of the protein M of SARS-CoV Urbani / Binding of Control serum LUMC to looped peptides of the protein M of SARS-CoV Urbani / Binding of Control Serum Blood-Bank to Looped peptides of the protein M of SARS-CoV Urbani: unit not given here
[3] = test system: rabbit serum obtained by immunizing a rabbit with the SARS-CoV strain Frankfurt 1; type: binding; set-up: Binding of a rabbit serum to linear peptides / Binding of a rabbit serum to looped peptides / Rabbit serum linear peptides / Rabbit serum looped peptides / Binding of a rabbit serum to linear peptides of protein N of SARS-CoV Urbani (Rabbit serum linear peptides) / Binding of a rabbit serum to looped/cyclic peptides of protein N of SARS-CoV Urbani (Rabbit serum looped peptides): unit not given here
[4] = test system: recombinant human anti-SARS-CoV antibody 03-018; type: binding; set-up: Binding of antibody 03-018 to linear peptides of the N protein of SARS-CoV Urbani / Binding of antibody 03-018 to looped/cyclic peptides of the N protein of SARS-CoV Urbani: unit not given here

Sequence | Binding of serum 1a to linear peptides of protein N of SARS-CoV Urbani [1] | Binding of serum 1a to looped/cyclic peptides of protein N of SARS-CoV Urbani [1] | Binding of serum 1b to linear peptides of protein N of SARS-CoV Urbani [1] | Binding of serum 1b to looped/cyclic peptides of protein N of SARS-CoV Urbani [1] | Binding of serum 2 to linear peptides of protein N of SARS-CoV Urbani [1] | Binding of serum 2 to looped/cyclic peptides of protein N of SARS-CoV Urbani [1] | Binding of serum 6 to linear peptides of protein N of SARS-CoV Urbani [1] | Binding of serum 6 to looped/cyclic peptides of protein N of SARS-CoV Urbani [1] | Binding of serum 37 to linear peptides of protein N of SARS-CoV Urbani [1] | Binding of serum 37 to looped/cyclic peptides of protein N of SARS-CoV Urbani [1] | Binding of serum 62 to linear peptides of protein N of SARS-CoV Urbani [1] | Binding of serum 62 to looped/cyclic peptides of protein N of SARS-CoV Urbani [1] | Binding of serum London to linear peptides of protein N of SARS-CoV Urbani [1] | Binding of serum London to looped/cyclic peptides of protein N of SARS-CoV Urbani [1] | Binding of serum SARS-green to linear peptides of protein N of SARS-CoV Urbani [1] | Binding of serum SARS-green to looped/cyclic peptides of protein N of SARS-CoV Urbani [1] | Binding of serum SARS-yellow to linear peptides of protein N of SARS-CoV Urbani [1] | Binding of serum SARS-yellow to looped/cyclic peptides of protein N of SARS-CoV Urbani [1] | Binding of Control Serum Blood-Bank to Looped peptides [2] | Binding of Control serum Blood-bank to linear peptides [2] | also measured
EASLPYGANKEGIVW | 0.2 | 0.3 | 0.1 | 0.2 | 0.2 | 0.4 | 0.1 | 0.2 | 0.5 | 0.7 | 0.5 | 0.6 | 0.4 | 0.5 | 0.2 | 0.5 | 0.6 | 0.2 | 0.7 | 0.8 | Binding of Control serum LUMC to linear peptides [2]: 0.6; Binding of Control serum LUMC to looped peptides [2]: 0.6; Binding of a rabbit serum to linear peptides of protein N of SARS-CoV Urbani (Rabbit serum linear peptides) [3]: 0.1; Binding of a rabbit serum to looped/cyclic peptides of protein N of SARS-CoV Urbani (Rabbit serum looped peptides) [3]: 0.3; Binding of antibody 03-018 to linear peptides of the N protein of SARS-CoV Urbani [4]: 0.1; Binding of antibody 03-018 to looped/cyclic peptides of the N protein of SARS-CoV Urbani [4]: 0.2
EELRFPRGQGVPINT | 0.2 | 0.6 | 0.1 | 0.4 | 0.3 | 0.8 | 0.2 | 0.5 | 0.7 | 1.0 | 0.7 | 1.2 | 0.5 | 0.7 | 0.4 | 0.9 | 0.6 | 0.8 | 1.3 | 0.8 | Binding of Control serum LUMC to linear peptides [2]: 0.8; Binding of Control serum LUMC to looped peptides [2]: 1.1; Binding of a rabbit serum to linear peptides of protein N of SARS-CoV Urbani (Rabbit serum linear peptides) [3]: 0.1; Binding of a rabbit serum to looped/cyclic peptides of protein N of SARS-CoV Urbani (Rabbit serum looped peptides) [3]: 0.6; Binding of antibody 03-018 to linear peptides of the N protein of SARS-CoV Urbani [4]: 0.1; Binding of antibody 03-018 to looped/cyclic peptides of the N protein of SARS-CoV Urbani [4]: 0.3
